Test results taken from US8753875B2, “Compositions and means for diagnosing microbial infections” (priority 2007, dated 2014).
Like-named read-outs stand apart in the source and are kept apart here.

Assays:
[1] = test system: Candida sp.; set-up: key: Susceptible = S; Resistant = R; settings: cited from earlier work
[2] = test system: P. vulgaris; set-up: key: Susceptible = S; Resistant = R; settings: cited from earlier work
[3] = test system: S. saprophyticus; set-up: key: Susceptible = S; Resistant = R; settings: cited from earlier work
[4] = test system: E. coli; settings: 1142 E. coli outpatient urinary isolates, USA and Canada; cited from earlier work
[5] = test system: Citrobacter; set-up: key: Susceptible = S; Resistant = R; settings: cited from earlier work
[6] = test system: Staphylococcus saprophyticus ATCC 49907; settings: 32 mg/l nitrofurantoin; 10^5 CFU/ml suspension, 18-24 hours at 37° C.
[7] = test system: E. faecalis; set-up: key: Susceptible = S; Resistant = R; settings: cited from earlier work
[8] = test system: E. coli; settings: cited from earlier work
[9] = test system: S. agalactiae; set-up: key: Susceptible = S; Resistant = R; settings: cited from earlier work
[10] = test system: E. faecium; set-up: key: Susceptible = S; Resistant = R; settings: cited from earlier work
[11] = test system: P. mirabilis; settings: cited from earlier work
[12] = test system: S. saprophyticus; assay: Growth on Flexicult plate, susceptibility/resistance to the five antibiotics (FIG. 4, Table A); assay type: cell-based
From the text: (§1) The kit was developed for urine culture in the primary health care setting. It is designed preferably as a nine cm Petri dish divided into six compartments: One larger compartment for quantitative analysis and five smaller compartments for susceptibility testing. The agar in each small compartment contains one of five antimicrobials (for Denmark and Scandinavia preferably: trimethoprim, sulfamethizole, ampicillin, nitrofurantoin and mecillinam (amdinocillin)) at a concentration adjusted to the breakpoint, such that growth in these compartments indicates resistance, and no growth indicates susceptibility. The Petri dish preferably has higher sides, approximately 2.48 cm, than the usual dish, i.e. ca. 1.48 cm. This allows a larger amount, maximum 100 ml, of urine to be poured onto the dish for inoculation.
(§2) Reading the susceptibility of the bacterial growth: Each bacterium (if more than one) is read individually: The growth in each of the antibiotic fields is compared with the growth on the control agar. […] If there is no growth (or substantially less than the control agar), then the bacterium is considered to be susceptible to the antibiotic. […] When nitrofurantoin and mecillinam are used as antibiotics, a few single colonies may be seen of the same type as the bacterium on the control agar: These are not considered to be resistant mutants but “persisters,” i.e. if retested they will appear susceptible. This is commonly seen also by disc diffusion especially for mecillinam.

[13] = test system: Klebsiella spp.; assay: as above; assay type: cell-based
From the text: as §1, §2

[14] = test system: E. coli; assay: as above; assay type: cell-based
From the text: as §1, §2

[15] = test system: Morganella spp.; assay: as above; assay type: cell-based
From the text: as §1, §2

[16] = test system: Citrobacter spp.; assay: as above; assay type: cell-based
From the text: as §1, §2

[17] = test system: P. aureginosa; assay: as above; assay type: cell-based
From the text: as §1, §2

[18] = test system: Proteus mirabilis; assay: as above; assay type: cell-based
From the text: as §1, §2

[19] = test system: E. faecium; assay: as above; assay type: cell-based
From the text: as §1, §2

[20] = test system: Enterobacter spp; assay: as above; assay type: cell-based
From the text: as §1, §2

[21] = test system: P. vulgaris; assay: as above; assay type: cell-based
From the text: as §1, §2

[22] = test system: E. faecalis; assay: as above; assay type: cell-based
From the text: as §1, §2

[23] = test system: Candida spp.; assay: as above; assay type: cell-based
From the text: as §1, §2

[24] = test system: Enterobacter; settings: cited from earlier work
[25] = test system: Pseud. Aeruginosa; set-up: key: Susceptible = S; Resistant = R; settings: cited from earlier work
[26] = test system: Morganella; set-up: key: Susceptible = S; Resistant = R; settings: cited from earlier work
[27] = test system: Klebsiella; settings: cited from earlier work
[28] = test system: E. coli; set-up: key: Susceptible = S; Resistant = R; settings: cited from earlier work
[29] = test system: E. coli; assay: Growth of E. coli in antibiotic compartments of the platform (FIG. 3); assay type: cell-based; settings: illustrated E. coli of FIG. 3
From the text: The photos show growth of E. coli at different quantities of bacteria/ml urine.

O=C1CN(N=Cc2ccc([N+](=O)[O-])o2)C(=O)N1 [Nitrofurantoin, 1-[(5-nitro-2-furyl)methylideneamino]imidazolidine-2,4-dione]
Normal susceptibility/resistance [1]: R
Normal susceptibility/resistance [2]: R
Normal susceptibility/resistance [3]: S
Overall resistance in E. coli [4]: 1.1%
Normal susceptibility/resistance [5]: S
reduction in the growth of/numbers of colonies formed [6]: at least 4 log CFU/ml
Normal susceptibility/resistance [7]: S
Antimicrobial resistance of E. coli (resistance in percent) ([8]; Austria, n 126): 0.8%
Antimicrobial resistance of E. coli (resistance in percent) ([8]; Belgium, n 137): 0.7%
Antimicrobial resistance of E. coli (resistance in percent) ([8]; Canada, n 166): 1.2%
Antimicrobial resistance of E. coli (resistance in percent) ([8]; Denmark, n 85): 1.2%
Antimicrobial resistance of E. coli (resistance in percent) ([8]; Finland, n 182): 0.5%
Antimicrobial resistance of E. coli (resistance in percent) ([8]; France, n 199): 1.0%
Antimicrobial resistance of E. coli (resistance in percent) ([8]; Germany, n 138): 0.7%
Antimicrobial resistance of E. coli (resistance in percent) ([8]; Greece, n 132): 3.0%
Antimicrobial resistance of E. coli (resistance in percent) ([8]; Ireland, n 154): 0%
Antimicrobial resistance of E. coli (resistance in percent) ([8]; Luxembourg, n 24): 4.2%
Antimicrobial resistance of E. coli (resistance in percent) ([8]; Norway, n 168): 0%
Antimicrobial resistance of E. coli (resistance in percent) ([8]; Portugal, n 86): 5.8%
Antimicrobial resistance of E. coli (resistance in percent) ([8]; Spain, n 191): 4.2%
Antimicrobial resistance of E. coli (resistance in percent) ([8]; Sweden, n 193): 0%
Antimicrobial resistance of E. coli (resistance in percent) ([8]; Switzerland, n 122): 0.8%
Antimicrobial resistance of E. coli (resistance in percent) ([8]; The Netherlands, n 195): 1.0%
Antimicrobial resistance of E. coli (resistance in percent) ([8]; Total, n 2478): 1.2%
Antimicrobial resistance of E. coli (resistance in percent) ([8]; United Kingdom, n 180): 0%
Normal susceptibility/resistance [9]: S
Normal susceptibility/resistance [10]: S
Normal susceptibility/resistance [11]: S/R
Susceptibility = S or Resistance = R [12]: S
Susceptibility = S or Resistance = R [13]: R
Susceptibility = S or Resistance = R [14]: S
Susceptibility = S or Resistance = R [15]: R/S
Susceptibility = S or Resistance = R [16]: S
Susceptibility = S or Resistance = R [17]: R
Susceptibility = S or Resistance = R [18]: S
Susceptibility = S or Resistance = R [19]: R
Susceptibility = S or Resistance = R [20]: S
Susceptibility = S or Resistance = R [21]: R/S
Susceptibility = S or Resistance = R [22]: R
Susceptibility = S or Resistance = R [23]: R
Normal susceptibility/resistance [24]: S/R
Normal susceptibility/resistance [25]: R
Normal susceptibility/resistance [26]: R
Normal susceptibility/resistance [27]: S/R
Normal susceptibility/resistance [28]: S
resistant or susceptible (growth in antibiotic compartment) [29]: susceptible
